For assay [1], the system named is U-87 MG. As to the kind of experiment: Antiproliferative activity against human U87 cells assessed as reduction in cell viability incubated for 72 hrs by MTT assay. The format is functional, cell-based, U-87MG ATCC.
The nature of assay [2]: Antiproliferative activity against human NCI-H1299 cells assessed as reduction in cell viability incubated for 72 hrs by MTT assay. The format is functional, cell-based. Conditions: NCI-H1299, 72 h.
For assay [3], the system named is HepG2. Description: Antiproliferative activity against human HepG2 cells assessed as reduction in cell viability incubated for 72 hrs by MTT assay. It is filed as functional, cell-based. Conditions: HepG2, 72 h.
For assay [4], the system named is SMMC-7721. Description: Inhibition of TGF-beta1-induced cell migration in human SMMC-7721 cells at 0.5 uM incubated for 24 hrs by wound healing assay relative to control. It is filed as functional.
Assay [5] deals with SMMC-7721. As to the kind of experiment: Inhibition of epithelial-mesenchymal transition in human SMMC-7721 cells assessed as decrease in TGF-beta1-induced MMP9 expression at 0.5 uM incubated for 48 hrs by immunofluorescence staining based laser-scanning confocal microscope. The format is functional, cell-based.
Assay [6] concerns SMMC-7721. Description: Inhibition of epithelial-mesenchymal transition in human SMMC-7721 cells assessed as increase in TGF-beta1 reduced E-cadherin expression at 0.5 uM incubated for 48 hrs by Western blot analysis. It is filed as functional, cell-based.
The test system of assay [7] is SMMC-7721. As to the kind of experiment: Inhibition of epithelial-mesenchymal transition in human SMMC-7721 cells assessed as increase in TGF-beta1 reduced E-cadherin expression at 0.5 uM incubated for 48 hrs by Immunofluorescence staining based laser-scanning confocal microscope. The format is functional, cell-based.
Assay [8] deals with SMMC-7721. As to the kind of experiment: Inhibition of epithelial-mesenchymal transition in human SMMC-7721 cells assessed as decrease in TGF-beta1-induced MMP9 expression at 0.5 uM incubated for 48 hrs by Western blot analysis. The format is functional, cell-based.
In assay [9] the test system is SMMC-7721. As to the kind of experiment: Inhibition of TGF-beta1-induced cell invasion in human SMMC-7721 cells at 0.5 uM incubated for 2 days by crystal violet staining based matrigel transwell migration assay. Conditions: time 2.0 day. It is filed as functional.
The test system of assay [10] is SMMC-7721. Description: Inhibition of epithelial-mesenchymal transition in human SMMC-7721 cells assessed as decrease in TGF-beta1-induced vimentin expression at 0.5 uM incubated for 48 hrs by Western blot analysis. It is filed as functional, cell-based.
The test system of assay [11] is SMMC-7721. As to the kind of experiment: Inhibition of epithelial-mesenchymal transition in human SMMC-7721 cells assessed as decrease in TGF-beta1-induced vimentin expression at 0.5 uM incubated for 48 hrs by immunofluorescence staining based laser-scanning confocal microscope. The format is functional, cell-based.
For assay [12], the system named is SMMC-7721. As to the kind of experiment: Antiproliferative activity against human SMMC-7721 cells assessed as reduction in cell viability incubated for 72 hrs by MTT assay. Conditions: SMMC-7721, 72 h. It is filed as functional, cell-based.

Structures can show the parent of a compound that is named as a salt. The source made the active and inactive calls. The rule behind the calls is not given here.

With `O=c1[nH]cc(F)c(=O)[nH]1` [FLUOROURACIL], the figures for the 50% inhibitory concentration (IC50) in assay [1], in [2] and in [3] were 45.3 µM, 41.8 µM and 31.7 µM, respectively.

For `COc1cccc2c1C(=O)c1c(O)c3c(c(O)c1C2=O)C[C@@](O)(C(=O)CO)C[C@@H]3O[C@H]1C[C@H](N)[C@H](O)[C@H](C)O1` [DOXORUBICIN HYDROCHLORIDE], the inhibition result in assay [4], in [5], in assay [6], in [7], in [8] and in assay [9] was “Active” throughout. Further, the inhibition entry in [10] and in assay [11] was “Active” in each case. For the same compound, the IC50 was 4.28 µM in [1] and 2.32 µM in [3].

With `Cc1nn(C)c(Oc2cccc(C(F)(F)F)c2)c1/C=N\OCCCCCCOc1cc2oc(=O)cc(C)c2cc1Cl`, the IC50 in assay [12] was 24.8 µM; in assay [1] it was 23.4 µM; in [2] it was greater than 25 µM; in assay [3], greater than 25 µM.

With `Cc1nn(C)c(Oc2ccc(OC(F)(F)F)cc2)c1/C=N\OCCCCCCOc1cc2oc(=O)cc(C)c2cc1Cl`, the IC50 was 6.35 µM in assay [12], 9.62 µM in assay [1], 11.9 µM in assay [2] and 8.16 µM in [3].
